Assay: xn = mol fraction of the nth substance listed
Settings: Liquid

CCCCCCCCCC [decane] + CCO
Settings | mass density [kg/m3] | viscosity [mPa·s]
273.15 K, x2 = 0.098 | 746.5 | 1.236
273.15 K, x2 = 0.198 | 748.3 | 1.257
273.15 K, x2 = 0.301 | 750.7 | 1.273
273.15 K, x2 = 0.397 | 753.8 | 1.328
273.15 K, x2 = 0.501 | 757.4 | 1.429
273.15 K, x2 = 0.602 | 762.7 | 1.523
273.15 K, x2 = 0.694 | 767.4 | 1.53
273.15 K, x2 = 0.799 | 774.9 | 1.565
273.15 K, x2 = 0.905 | 787.7 | 1.639
275.65 K, x2 = 0.098 | 744.6 | 1.181
275.65 K, x2 = 0.198 | 746.4 | 1.2
275.65 K, x2 = 0.301 | 748.7 | 1.213
275.65 K, x2 = 0.397 | 751.8 | 1.263
275.65 K, x2 = 0.501 | 755.4 | 1.351
275.65 K, x2 = 0.602 | 760.7 | 1.432
275.65 K, x2 = 0.694 | 765.4 | 1.448
275.65 K, x2 = 0.799 | 772.9 | 1.486
275.65 K, x2 = 0.905 | 785.7 | 1.557
278.15 K, x2 = 0.098 | 742.7 | 1.13
278.15 K, x2 = 0.198 | 744.4 | 1.148
278.15 K, x2 = 0.301 | 746.8 | 1.158
278.15 K, x2 = 0.397 | 749.9 | 1.203
278.15 K, x2 = 0.501 | 753.4 | 1.281
278.15 K, x2 = 0.602 | 758.7 | 1.353
278.15 K, x2 = 0.694 | 763.3 | 1.374
278.15 K, x2 = 0.799 | 770.9 | 1.412
278.15 K, x2 = 0.905 | 783.6 | 1.48
280.65 K, x2 = 0.098 | 740.8 | 1.083
280.65 K, x2 = 0.198 | 742.5 | 1.099
280.65 K, x2 = 0.301 | 744.8 | 1.107
280.65 K, x2 = 0.397 | 747.9 | 1.147
280.65 K, x2 = 0.501 | 751.5 | 1.217
280.65 K, x2 = 0.602 | 756.7 | 1.282
280.65 K, x2 = 0.694 | 761.3 | 1.305
280.65 K, x2 = 0.799 | 768.8 | 1.344
280.65 K, x2 = 0.905 | 781.6 | 1.408
283.15 K, x2 = 0.098 | 738.9 | 1.038
283.15 K, x2 = 0.198 | 740.6 | 1.053
283.15 K, x2 = 0.301 | 742.9 | 1.06
283.15 K, x2 = 0.397 | 746 | 1.096
283.15 K, x2 = 0.501 | 749.5 | 1.159
283.15 K, x2 = 0.602 | 754.7 | 1.219
283.15 K, x2 = 0.694 | 759.3 | 1.242
283.15 K, x2 = 0.799 | 766.8 | 1.28
283.15 K, x2 = 0.905 | 779.5 | 1.341
285.65 K, x2 = 0.098 | 737 | 0.9963
285.65 K, x2 = 0.198 | 738.7 | 1.01
285.65 K, x2 = 0.301 | 741 | 1.015
285.65 K, x2 = 0.397 | 744 | 1.048
285.65 K, x2 = 0.501 | 747.5 | 1.105
285.65 K, x2 = 0.602 | 752.7 | 1.158
285.65 K, x2 = 0.694 | 757.3 | 1.183
285.65 K, x2 = 0.799 | 764.7 | 1.22
285.65 K, x2 = 0.905 | 777.4 | 1.278
288.15 K, x2 = 0.098 | 735 | 0.9574
288.15 K, x2 = 0.198 | 736.7 | 0.9702
288.15 K, x2 = 0.301 | 739 | 0.9738
288.15 K, x2 = 0.397 | 742 | 1.003
288.15 K, x2 = 0.501 | 745.5 | 1.056
288.15 K, x2 = 0.602 | 750.6 | 1.104
288.15 K, x2 = 0.694 | 755.2 | 1.128
288.15 K, x2 = 0.799 | 762.7 | 1.163
288.15 K, x2 = 0.905 | 775.3 | 1.218
290.65 K, x2 = 0.098 | 733.1 | 0.9207
290.65 K, x2 = 0.198 | 734.8 | 0.9321
290.65 K, x2 = 0.301 | 737 | 0.9348
290.65 K, x2 = 0.397 | 740 | 0.9608
290.65 K, x2 = 0.501 | 743.5 | 1.009
290.65 K, x2 = 0.602 | 748.6 | 1.053
290.65 K, x2 = 0.694 | 753.1 | 1.076
290.65 K, x2 = 0.799 | 760.6 | 1.11
290.65 K, x2 = 0.905 | 773.3 | 1.162
293.15 K, x2 = 0 | 731 | 0.9133
293.15 K, x2 = 0.098 | 731.2 | 0.8862
293.15 K, x2 = 0.198 | 732.8 | 0.8973
293.15 K, x2 = 0.301 | 735.1 | 0.8982
293.15 K, x2 = 0.397 | 738 | 0.9215
293.15 K, x2 = 0.501 | 741.5 | 0.966
293.15 K, x2 = 0.602 | 746.6 | 1.006
293.15 K, x2 = 0.694 | 751.1 | 1.028
293.15 K, x2 = 0.799 | 758.5 | 1.061
293.15 K, x2 = 0.905 | 771.2 | 1.109
295.65 K, x2 = 0.098 | 729.4 | 0.8534
295.65 K, x2 = 0.198 | 730.9 | 0.8635
295.65 K, x2 = 0.301 | 733.1 | 0.8638
295.65 K, x2 = 0.397 | 736 | 0.8848
295.65 K, x2 = 0.501 | 739.5 | 0.9255
295.65 K, x2 = 0.602 | 744.5 | 0.962
295.65 K, x2 = 0.694 | 749 | 0.983
295.65 K, x2 = 0.799 | 756.5 | 1.014
295.65 K, x2 = 0.905 | 769.1 | 1.06
298.15 K, x2 = 0 | 727.2 | 0.8509
298.15 K, x2 = 0.098 | 727.3 | 0.823
298.15 K, x2 = 0.198 | 728.9 | 0.8318
298.15 K, x2 = 0.301 | 731.1 | 0.8314
298.15 K, x2 = 0.397 | 734 | 0.8501
298.15 K, x2 = 0.501 | 737.5 | 0.8872
298.15 K, x2 = 0.602 | 742.5 | 0.9216
298.15 K, x2 = 0.694 | 747 | 0.9407
298.15 K, x2 = 0.799 | 754.4 | 0.9698
298.15 K, x2 = 0.905 | 766.9 | 1.013

Source: the NIST ThermoML archive (doi:10.1021/je800925v)
